Assay results from PubChem BioAssay (NCI).
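How tested: cells in 96-well plates exposed to compound for 48 hours at five concentrations. Abbreviation: GI50, concentration required for 50% inhibition of growth. TGI: concentration producing complete growth inhibition.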

Key:
Test in all cases: inhibition of tumour cell growth, NCI panel, 48 h
M14 melanoma = tested on: M14 melanoma
HCC-2998 colon = tested on: HCC-2998 colon
HCT-15 colon = tested on: HCT-15 colon
IGROV1 ovarian = tested on: IGROV1 ovarian
NCI/ADR-RES ovarian = tested on: NCI/ADR-RES ovarian
NCI-H226 lung = tested on: NCI-H226 lung
LOX IMVI melanoma = tested on: LOX IMVI melanoma
A498 renal = tested on: A498 renal
A549 NSCLC = tested on: A549 NSCLC
OVCAR-5 ovarian = tested on: OVCAR-5 ovarian
ACHN renal = tested on: ACHN renal
SK-MEL-5 melanoma = tested on: SK-MEL-5 melanoma
786-0 renal = tested on: 786-0 renal
OVCAR-8 ovarian = tested on: OVCAR-8 ovarian
OVCAR-4 ovarian = tested on: OVCAR-4 ovarian
UACC-62 melanoma = tested on: UACC-62 melanoma
HL-60(TB) leukemia = tested on: HL-60(TB) leukemia
UO-31 renal = tested on: UO-31 renal
U251 CNS = tested on: U251 CNS
UACC-257 melanoma = tested on: UACC-257 melanoma
CAKI-1 renal = tested on: CAKI-1 renal
HS 578T breast = tested on: HS 578T breast
MDA-MB-231 breast = tested on: MDA-MB-231 breast
SF-295 CNS = tested on: SF-295 CNS
SF-539 CNS = tested on: SF-539 CNS
NCI-H522 lung = tested on: NCI-H522 lung
MALME-3M melanoma = tested on: MALME-3M melanoma
MDA-MB-468 breast = tested on: MDA-MB-468 breast
SF-268 CNS = tested on: SF-268 CNS
CCRF-CEM leukemia = tested on: CCRF-CEM leukemia
HCT-116 colon = tested on: HCT-116 colon
SN12C renal = tested on: SN12C renal
SR leukemia = tested on: SR leukemia
OVCAR-3 ovarian = tested on: OVCAR-3 ovarian
MOLT-4 leukemia = tested on: MOLT-4 leukemia
HT29 colon = tested on: HT29 colon
HOP-92 NSCLC = tested on: HOP-92 NSCLC
NCI-H23 lung = tested on: NCI-H23 lung
DU-145 prostate = tested on: DU-145 prostate
TK-10 renal = tested on: TK-10 renal
RPMI-8226 leukemia = tested on: RPMI-8226 leukemia
BT-549 breast = tested on: BT-549 breast
EKVX NSCLC = tested on: EKVX NSCLC
MCF7 breast = tested on: MCF7 breast
PC-3 prostate = tested on: PC-3 prostate
SNB-75 CNS = tested on: SNB-75 CNS
HOP-62 NSCLC = tested on: HOP-62 NSCLC
COLO 205 colon = tested on: COLO 205 colon
K-562 leukemia = tested on: K-562 leukemia
SK-OV-3 ovarian = tested on: SK-OV-3 ovarian
SW-620 colon = tested on: SW-620 colon
MDA-MB-435 = tested on: MDA-MB-435
T-47D breast = tested on: T-47D breast
SNB-19 CNS = tested on: SNB-19 CNS
SK-MEL-28 melanoma = tested on: SK-MEL-28 melanoma
KM12 colon = tested on: KM12 colon
SK-MEL-2 melanoma = tested on: SK-MEL-2 melanoma
RXF 393 renal = tested on: RXF 393 renal
NCI-H460 lung = tested on: NCI-H460 lung

O=C(N/N=C/c1ccc(Br)o1)c1[nH]c2ccc(Br)cc2c1-c1ccccc1
GI50 (M14 melanoma): 351 nM | TGI (M14 melanoma): 30.2 µM | GI50 (HCC-2998 colon): 385 nM | TGI (HCC-2998 colon): 18.5 µM | GI50 (HCT-15 colon): 353 nM | TGI (HCT-15 colon): 23.9 µM | GI50 (IGROV1 ovarian): 421 nM | TGI (IGROV1 ovarian): > 46.7 µM | GI50 (NCI/ADR-RES ovarian): 231 nM | TGI (NCI/ADR-RES ovarian): 583 nM | GI50 (NCI-H226 lung): 511 nM | TGI (NCI-H226 lung): 6.32 µM | GI50 (LOX IMVI melanoma): 336 nM | TGI (LOX IMVI melanoma): 16.3 µM | GI50 (A498 renal): 23.6 µM | TGI (A498 renal): > 69.6 µM | GI50 (A549 NSCLC): 383 nM | TGI (A549 NSCLC): 28.7 µM | GI50 (OVCAR-5 ovarian): 372 nM | TGI (OVCAR-5 ovarian): 22 µM | GI50 (ACHN renal): 504 nM | TGI (ACHN renal): 40.1 µM | GI50 (SK-MEL-5 melanoma): 204 nM | TGI (SK-MEL-5 melanoma): 424 nM | GI50 (786-0 renal): 397 nM | TGI (786-0 renal): 6.15 µM | GI50 (OVCAR-8 ovarian): 297 nM | TGI (OVCAR-8 ovarian): 2830 nM | GI50 (OVCAR-4 ovarian): 5.39 µM | TGI (OVCAR-4 ovarian): > 53.3 µM | GI50 (UACC-62 melanoma): 395 nM | TGI (UACC-62 melanoma): > 76.5 µM | GI50 (HL-60(TB) leukemia): 235 nM | TGI (HL-60(TB) leukemia): 690 nM | GI50 (UO-31 renal): 679 nM | TGI (UO-31 renal): 28.8 µM | GI50 (U251 CNS): 337 nM | TGI (U251 CNS): 16.9 µM | GI50 (UACC-257 melanoma): 2690 nM | TGI (UACC-257 melanoma): > 100 µM | GI50 (CAKI-1 renal): 424 nM | TGI (CAKI-1 renal): 24.2 µM | GI50 (HS 578T breast): 323 nM | TGI (HS 578T breast): 12.8 µM | GI50 (MDA-MB-231 breast): 352 nM | TGI (MDA-MB-231 breast): 12.3 µM | GI50 (SF-295 CNS): 353 nM | TGI (SF-295 CNS): > 38.6 µM | GI50 (SF-539 CNS): 226 nM | TGI (SF-539 CNS): 562 nM | GI50 (NCI-H522 lung): 177 nM | TGI (NCI-H522 lung): 549 nM | GI50 (MALME-3M melanoma): 480 nM | TGI (MALME-3M melanoma): 47.5 µM | GI50 (MDA-MB-468 breast): 228 nM | TGI (MDA-MB-468 breast): 585 nM | GI50 (SF-268 CNS): 861 nM | TGI (SF-268 CNS): > 52.9 µM | GI50 (CCRF-CEM leukemia): 311 nM | TGI (CCRF-CEM leukemia): 17.9 µM | GI50 (HCT-116 colon): 311 nM | TGI (HCT-116 colon): 4.21 µM | GI50 (SN12C renal): 377 nM | TGI (SN12C renal): 14.2 µM | GI50 (SR leukemia): 345 nM | TGI (SR leukemia): 22.4 µM | GI50 (OVCAR-3 ovarian): 415 nM | TGI (OVCAR-3 ovarian): 17.1 µM | GI50 (MOLT-4 leukemia): 431 nM | TGI (MOLT-4 leukemia): > 38.2 µM | GI50 (HT29 colon): 298 nM | TGI (HT29 colon): 2980 nM | GI50 (HOP-92 NSCLC): 1140 nM | TGI (HOP-92 NSCLC): 32.7 µM | GI50 (NCI-H23 lung): 393 nM | TGI (NCI-H23 lung): 29.3 µM | GI50 (DU-145 prostate): 391 nM | TGI (DU-145 prostate): 14.7 µM | GI50 (TK-10 renal): 5.31 µM | TGI (TK-10 renal): > 46.5 µM | GI50 (RPMI-8226 leukemia): 415 nM | TGI (RPMI-8226 leukemia): > 100 µM | GI50 (BT-549 breast): 379 nM | TGI (BT-549 breast): 2130 nM | GI50 (EKVX NSCLC): 539 nM | TGI (EKVX NSCLC): 59.9 µM | GI50 (MCF7 breast): 341 nM | TGI (MCF7 breast): > 100 µM | GI50 (PC-3 prostate): 398 nM | TGI (PC-3 prostate): > 53.8 µM | GI50 (SNB-75 CNS): 464 nM | TGI (SNB-75 CNS): 22.8 µM | GI50 (HOP-62 NSCLC): 565 nM | TGI (HOP-62 NSCLC): 27.4 µM | GI50 (COLO 205 colon): 227 nM | TGI (COLO 205 colon): 482 nM | GI50 (K-562 leukemia): 339 nM | TGI (K-562 leukemia): > 44.5 µM | GI50 (SK-OV-3 ovarian): 731 nM | TGI (SK-OV-3 ovarian): > 65.4 µM | GI50 (SW-620 colon): 374 nM | TGI (SW-620 colon): 22.9 µM | GI50 (MDA-MB-435): 216 nM | TGI (MDA-MB-435): 567 nM | GI50 (T-47D breast): 4.18 µM | TGI (T-47D breast): > 100 µM | GI50 (SNB-19 CNS): 455 nM | TGI (SNB-19 CNS): > 81.8 µM | GI50 (SK-MEL-28 melanoma): 1120 nM | TGI (SK-MEL-28 melanoma): 46.9 µM | GI50 (KM12 colon): 352 nM | TGI (KM12 colon): > 44.5 µM | GI50 (SK-MEL-2 melanoma): 407 nM | TGI (SK-MEL-2 melanoma): > 100 µM | GI50 (RXF 393 renal): 443 nM | TGI (RXF 393 renal): 21.4 µM | GI50 (NCI-H460 lung): 326 nM | TGI (NCI-H460 lung): 10.8 µM
